Consider 3 compounds from patent US6353024B1, “Method for preventing and treating arthritis, osteo-traumatic pain, and neuralgias with trimebutine” (Warner-Lambert Company, priority 2000, dated 2002).

The test system of series [1] is streptozocin-induced hyperalgesia. In words: streptozocin-induced diabetic rats, tail immersion test. The note with it: single dose 30 mg/kg s.c., 30 min or 60 min before tail immersion test, water 44° C. The series is classed as in vivo, rat. Here is the method:
FIG. 9: Effect of TMB in diabetic rats.
Test is carried out with male Sprague Dawley rats (Iffa-Credo) weighing 160-180 grams on arrival. […] Food and water are provided ad libidum.
Animals are intraperitoneally injected with streptozocin 75 mg/kg. Control animals are given vehicle in the same conditions. Diabetes are confirmed once a week after injection by measurement of tail vein blood glucose levels with Boehriger glycemnia test. Only animals with a final glucose level[…] are included in the study.
The tail of the rat is immersed in a water bath at 44° C. Nociceptive reaction is defined as the reaction time (seconds) before the tail withdrawal. Results are expressed as the mean+/−SEM and analysed by a Student's t test after an analysis of variance (Anova one way)

For series [2], the system named is unilateral peripheral mononeuropathy. In words: rat mononeuropathy, vocalization threshold to paw pressure.
Series [3] concerns formalin induced pain. In words: formalin-induced pain. The note with it: s.c., 30 min before formalin injection in the paw.
The conditions of series [4]: volunteers, tablets of 900 mg of trimebutine, oral.
In series [5] the test system is sodium current of DRG neurons. In words: whole cell patch clamp, sodium currents in DRG neurons. The series is classed as cell-based, rat. (In general: Patch clamp records ionic current or voltage across a cell membrane.)

SMILES strings stand for the structures. Some results are limits rather than exact numbers.

As to `CC[C@](COC(=O)c1cc(OC)c(OC)c(OC)c1)(NC)c1ccccc1` [(S)-Nor-TMB, (S)-N-desmethyl trimebutine], the “reaction time of tail withdrawal” value in series [1] was “the same as in control (non diabetic) rats”. In addition, in series [2] (3 and 10 mg/kg s.c.), the “antinociceptive effect in terms of amplitude and duration of action” value is given as “superior to that of morphine at 1 mg/kg i.v”. In addition, in series [2] (s.c.), the “antinociceptive effect in the contralateral paw” value is on record as “only at the highest dose (10 mg/kg)” and the “dose from which increase of the vocalization pressure threshold is present” value is on record as at least 1 mg/kg. In series [2] (s.c., three doses), the “antinociceptive effect in the nerve-injured paw” value was “significant at all the three doses tested”.

For `CCC(COC(=O)c1cc(OC)c(OC)c(OC)c1)(NC)c1ccccc1` (stereo not drawn) [Nor-TMB, N-desmethyl trimebutine], the “ED50, formalin induced pain” value in series [3] is listed as 17 mg/kg.

In the case of `CCC(COC(=O)c1cc(OC)c(OC)c(OC)c1)(c1ccccc1)N(C)C.O=C(O)/C=C\C(=O)O` (racemic) [trimebutine, 2-dimethylamino-2-phenylbutyl 3,4,5-trimethoxybenzoate hydrogen maleate], in series [4], the “time of maximal plasma concentrations” value stood at 1 h. The unblocking rate koff in series [5] is on record as 29 10^−3 s^−1. In addition, the “time constant τoff of recovery from block” value in series [5] (n=6) was 34 ± 4 s.
